Assay results reported in patent publication US20250100994A1, “CDK12/13 COVALENT INHIBITORS OR PHARMACEUTICAL COMPOSITION THEREOF, AND USES THEREOF” (The Regents of the University of Michigan, priority 2023, published 2025).

Assays:
CDK12 = CDK12 (Homo sapiens (Human), UniProt Q9NYV4); experiment: LANCE Ultra kinase assay, CDK12; type: biochemical; settings: 30 nM enzyme, 60 min pre-incubation, ULight-4E-BP1 150 nM; read-out: CDK12 IC50
Description: (§1) The inhibitory activities of the test compound on the kinases were evaluated by LANCE Ultra assay, which was used for detecting ATP-dependent phosphorylation of a ULight-4E-BP1 (Thr37/Thr46) substrate peptide (150 nM). In short, enzymatic reactions were performed in a reaction buffer (25 mM HEPES (pH 7.5), 10 mM MgCl2, 0.01% BSA, 0.01% Tween 20, and 1 mM DTT). The assay was performed in a 384-well plate (6 μL). A final concentration of an ATP substrate was […], and a final concentration of the ULight-4E-BP1 (Thr37/Thr46) substrate peptide was 150 nM. A final concentration of CDK9, CDK12, or CDK13 was 0.3, 30, or 30 nM, respectively. Pre-incubation of the compound and the enzyme was performed at room temperature for 60 min. The reaction was stopped by adding 10 mM EDTA and 0.15 nM Eu-labeled anti-phospho-eIF4E-binding protein 1 (Thr37/46) antibody in LANCE detection buffer after incubation at room temperature for 15, 60, or 90 min. Time-resolved fluorescence (excitation, 320 nm; emission donor, 615 nm; emission acceptor, 665 nm) was monitored using an EnVision spectrophotometer (PerkinElmer). Readings were computed as (acceptor count/donor count)×1000. IC50 values were derived by fitting a sigmoidal dose-response curve to a plot of assay readouts of inhibitor concentrations. All fittings were computed using program Prism 5.03 (GraphPad Software, San Diego, CA).

CDK13 = CDK13 (Homo sapiens (Human), UniProt Q14004); experiment: LANCE Ultra kinase assay, CDK13; type: biochemical; settings: 30 nM enzyme, 60 min pre-incubation, ULight-4E-BP1 150 nM; read-out: CDK13 IC50
Sequence of CDK13 (Q14004 whole entry, looked up): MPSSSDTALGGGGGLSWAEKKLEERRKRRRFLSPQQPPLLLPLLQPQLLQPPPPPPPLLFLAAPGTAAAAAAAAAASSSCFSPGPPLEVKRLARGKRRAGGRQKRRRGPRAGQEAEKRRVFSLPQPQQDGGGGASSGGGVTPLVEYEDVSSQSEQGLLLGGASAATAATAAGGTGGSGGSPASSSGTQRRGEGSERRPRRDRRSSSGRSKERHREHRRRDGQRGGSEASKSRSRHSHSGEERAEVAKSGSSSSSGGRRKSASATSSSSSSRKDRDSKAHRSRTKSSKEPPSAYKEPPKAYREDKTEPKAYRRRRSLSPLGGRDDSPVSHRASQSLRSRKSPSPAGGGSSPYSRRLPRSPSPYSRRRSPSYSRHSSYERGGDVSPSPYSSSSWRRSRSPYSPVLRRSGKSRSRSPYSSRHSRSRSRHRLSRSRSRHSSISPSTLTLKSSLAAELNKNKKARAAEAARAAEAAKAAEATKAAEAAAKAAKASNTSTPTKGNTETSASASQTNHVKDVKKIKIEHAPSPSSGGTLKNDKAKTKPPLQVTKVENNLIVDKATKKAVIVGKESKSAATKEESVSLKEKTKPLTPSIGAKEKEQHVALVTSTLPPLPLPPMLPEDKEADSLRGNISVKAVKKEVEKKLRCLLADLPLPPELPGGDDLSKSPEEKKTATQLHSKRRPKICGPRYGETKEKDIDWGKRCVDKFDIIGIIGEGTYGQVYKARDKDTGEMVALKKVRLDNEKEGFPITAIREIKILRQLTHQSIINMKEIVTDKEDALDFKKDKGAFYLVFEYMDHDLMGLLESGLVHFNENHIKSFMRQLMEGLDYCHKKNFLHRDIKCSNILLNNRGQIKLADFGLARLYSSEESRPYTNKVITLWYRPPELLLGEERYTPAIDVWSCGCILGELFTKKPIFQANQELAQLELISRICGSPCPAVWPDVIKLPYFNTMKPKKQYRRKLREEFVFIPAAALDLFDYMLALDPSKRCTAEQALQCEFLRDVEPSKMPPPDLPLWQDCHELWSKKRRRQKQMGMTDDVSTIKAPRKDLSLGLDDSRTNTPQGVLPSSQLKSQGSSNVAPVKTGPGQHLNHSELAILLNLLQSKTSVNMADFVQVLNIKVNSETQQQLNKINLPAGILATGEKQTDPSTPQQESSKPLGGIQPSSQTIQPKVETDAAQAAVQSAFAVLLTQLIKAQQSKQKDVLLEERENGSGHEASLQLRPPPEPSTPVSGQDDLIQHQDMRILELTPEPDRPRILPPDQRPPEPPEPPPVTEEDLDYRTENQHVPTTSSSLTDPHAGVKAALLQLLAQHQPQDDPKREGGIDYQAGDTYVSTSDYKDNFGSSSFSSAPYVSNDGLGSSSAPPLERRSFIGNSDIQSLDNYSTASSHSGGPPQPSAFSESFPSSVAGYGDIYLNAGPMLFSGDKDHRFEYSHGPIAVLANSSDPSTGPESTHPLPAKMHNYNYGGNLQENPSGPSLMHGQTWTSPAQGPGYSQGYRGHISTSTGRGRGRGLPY
Sequence of CDK13 (O75909 whole entry partner, looked up): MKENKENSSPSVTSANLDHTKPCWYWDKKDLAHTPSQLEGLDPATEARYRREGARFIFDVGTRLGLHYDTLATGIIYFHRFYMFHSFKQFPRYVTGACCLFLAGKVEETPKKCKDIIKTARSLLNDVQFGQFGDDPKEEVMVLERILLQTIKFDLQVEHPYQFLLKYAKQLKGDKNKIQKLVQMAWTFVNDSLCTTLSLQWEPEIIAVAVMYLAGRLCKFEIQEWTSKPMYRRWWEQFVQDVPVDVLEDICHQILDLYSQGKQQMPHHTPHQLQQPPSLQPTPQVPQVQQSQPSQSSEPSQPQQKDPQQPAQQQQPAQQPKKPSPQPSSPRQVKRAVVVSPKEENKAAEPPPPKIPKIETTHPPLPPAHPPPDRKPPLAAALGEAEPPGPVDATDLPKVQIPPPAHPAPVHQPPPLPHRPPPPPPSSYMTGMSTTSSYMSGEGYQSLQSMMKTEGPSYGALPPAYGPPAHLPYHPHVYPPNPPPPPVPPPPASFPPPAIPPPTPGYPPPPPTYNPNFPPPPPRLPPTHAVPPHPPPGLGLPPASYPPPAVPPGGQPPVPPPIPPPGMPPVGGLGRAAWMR
Description: as §1

VCaP cell = VCaP cell proliferation, CellTiter-Glo Luminescent Cell Viability Assay; type: cell-based; settings: VCaP cells
Description: The VCaP cell proliferation activity was determined by CellTiter-Glo Luminescent Cell Viability Assay (Promega, Madison, WI). The cells were inoculated on a 96-well plate in their respective culture mediums, and incubated in an incubator with 5% CO2 at 37° C. After incubation overnight, serial dilutions of the compound were prepared, and added into the 96-well plate. A CellTiter-Glo reagent (volume equal to the volume of the cell culture medium present in each well) was added (e.g., 100 μL of the reagent was added into 100 μL of the cell culture medium in the 96-well plate). The contents were mixed on an orbital shaker for 2 min to induce the cell lysis. The cells in the 96-well plate were incubated at room temperature for 10 min, to stabilize the luminescent signal. Luminescence was recorded: the luminescent signal for each well was acquired using an Infinite M1000 Pro plate reader (Tecan, Zurich, Switzerland), and the data was analyzed using GraphPad Prism software (GraphPad Software Inc, La Jolla, CA).

Sequence of CDK12 (Q9NYV4 whole entry): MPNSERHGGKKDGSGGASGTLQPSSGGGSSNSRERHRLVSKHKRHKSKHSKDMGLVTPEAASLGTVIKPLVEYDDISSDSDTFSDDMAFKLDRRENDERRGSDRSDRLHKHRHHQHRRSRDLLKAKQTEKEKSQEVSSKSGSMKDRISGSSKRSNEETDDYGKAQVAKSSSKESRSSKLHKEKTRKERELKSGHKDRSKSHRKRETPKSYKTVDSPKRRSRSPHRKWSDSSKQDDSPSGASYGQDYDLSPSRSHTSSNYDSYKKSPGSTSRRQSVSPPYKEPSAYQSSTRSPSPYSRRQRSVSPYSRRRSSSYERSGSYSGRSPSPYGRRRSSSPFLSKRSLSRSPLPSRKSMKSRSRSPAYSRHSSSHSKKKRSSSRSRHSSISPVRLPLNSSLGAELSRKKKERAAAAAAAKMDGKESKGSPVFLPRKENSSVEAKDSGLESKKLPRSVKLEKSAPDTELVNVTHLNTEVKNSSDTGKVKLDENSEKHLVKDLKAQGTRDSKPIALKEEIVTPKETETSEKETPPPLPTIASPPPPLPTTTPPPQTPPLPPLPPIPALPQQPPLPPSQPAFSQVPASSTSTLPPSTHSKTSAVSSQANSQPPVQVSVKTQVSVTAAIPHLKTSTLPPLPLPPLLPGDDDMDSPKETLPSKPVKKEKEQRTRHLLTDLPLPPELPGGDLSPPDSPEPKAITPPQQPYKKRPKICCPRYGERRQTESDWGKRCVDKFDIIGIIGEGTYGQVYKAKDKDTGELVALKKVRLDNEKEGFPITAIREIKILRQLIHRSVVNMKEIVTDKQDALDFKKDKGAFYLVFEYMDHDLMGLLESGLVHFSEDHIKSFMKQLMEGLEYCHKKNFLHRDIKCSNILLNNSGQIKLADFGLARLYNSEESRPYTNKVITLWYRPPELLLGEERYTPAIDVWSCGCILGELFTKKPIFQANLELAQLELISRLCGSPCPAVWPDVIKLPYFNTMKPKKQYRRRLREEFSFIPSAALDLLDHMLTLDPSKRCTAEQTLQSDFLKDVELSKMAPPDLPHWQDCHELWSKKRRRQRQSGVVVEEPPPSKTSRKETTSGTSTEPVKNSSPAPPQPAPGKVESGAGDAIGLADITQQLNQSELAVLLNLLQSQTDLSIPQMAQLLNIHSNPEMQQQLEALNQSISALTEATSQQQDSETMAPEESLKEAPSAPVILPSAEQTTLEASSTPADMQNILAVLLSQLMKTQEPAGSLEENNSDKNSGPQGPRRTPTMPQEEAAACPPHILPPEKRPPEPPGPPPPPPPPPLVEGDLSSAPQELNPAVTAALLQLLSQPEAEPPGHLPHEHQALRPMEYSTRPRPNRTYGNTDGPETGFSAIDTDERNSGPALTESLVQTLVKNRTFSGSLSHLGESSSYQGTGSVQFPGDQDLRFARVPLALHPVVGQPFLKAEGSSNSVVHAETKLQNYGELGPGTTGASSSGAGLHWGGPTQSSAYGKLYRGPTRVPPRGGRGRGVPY
Sequence of CDK12 (O75909 whole entry partner): as the sequence (O75909 whole entry partner, looked up) above

Compound `C=CC(=O)Nc1cc(N(C(=O)NCc2ccccc2)[C@H]2CC[C@H](Nc3ccc(C#N)cn3)CC2)ccc1N1CCN(C2COC2)CC1` [YJZ6028, N-(5-(3-benzyl-1-((1r,4r)-4-((5-cyanopyridin-2-yl)amino)cyclohexyl)ureido)-2-(4-(oxetan-3-yl)piperazin-1-yl)phenyl)acrylamide] has an IC50 (CDK12) of 50 to 500 nM, an IC50 (CDK13) of 50 to 500 nM and an IC50 (VCaP cell; Homo sapiens) of 15 to 50 nM.

With `C=CC(=O)Nc1cc(N(C(=O)NCc2ccccc2)[C@H]2CC[C@H](Nc3ccc(C#N)cn3)CC2)cc(F)c1N1CCN(C)[C@@H](C)C1` [YJZ8070] the IC50 (CDK12) was 50 to 500 nM, the IC50 (CDK13) was 15 to 50 nM and the IC50 (VCaP cell) was under 15 nM.

With `C=CC(=O)Nc1cc(N(C(=O)C(=O)NCc2cccc(F)c2)[C@H]2CC[C@H](Nc3ccc(C#N)cn3)CC2)ccc1N1CCN(C)[C@@H](C)C1` [YJZ8087, N1-(3-acrylamido-4-((S)-3,4-dimethylpiperazin-1-yl)phenyl)-N1-((1r,4S)-4-((5-cyanopyridin-2-yl)amino)cyclohexyl)-N2-(3-fluorobenzyl)oxalamide] the IC50 (VCaP cell; Homo sapiens) was 15 to 50 nM.

`C=CC(=O)Nc1cc(N(C(=O)C(=O)NCC2CC2)[C@H]2CC[C@H](Nc3ccc(C#N)cn3)CC2)ccc1N1CCN(C)[C@@H](C)C1` [YJZ8103, N1-(3-acrylamido-4-((S)-3,4-dimethylpiperazin-1-yl)phenyl)-N1-((1r,4S)-4-((5-cyanopyridin-2-yl)amino)cyclohexyl)-N2-(cyclopropylmethyl)oxalamide] was tested, and the IC50 (VCaP cell; Homo sapiens) was 15 to 50 nM.

For `C=CC(=O)Nc1cc(N(C(=O)NCc2ccccc2)[C@H]2CC[C@H](Nc3ccc(C#N)cn3)CC2)ccc1N1CCC(N(C)C)C1` (stereo partly drawn) [YJZ6082], the IC50 (CDK12) was over 500 nM, the IC50 (CDK13) was 50 to 500 nM and the IC50 (VCaP cell; Homo sapiens) was 50 to 500 nM.

`C=CC(=O)Nc1cc(N2CCN(C)[C@@H](C)C2)cc(N(C(=O)NCc2ccccc2)[C@H]2CC[C@H](Nc3ccc(C#N)cn3)CC2)c1` [YJZ8062] showed an IC50 (VCaP cell; Homo sapiens) of 15 to 50 nM.

For `C=CC(=O)Nc1cc(N(C(=O)NCc2ccccc2)[C@H]2CC[C@H](Nc3ncc(C#N)cn3)CC2)ccc1N1CCN(C)[C@@H](C)C1` [YJZ7007], the IC50 (VCaP cell; Homo sapiens) was 15 to 50 nM.

`C=CC(=O)Nc1cc(OC)cc(N(C(=O)NCc2ccccc2)[C@H]2CC[C@H](Nc3ccc(C#N)cn3)CC2)c1` [YJZ8058, N-(3-(3-benzyl-1-((1r,4r)-4-((5-cyanopyridin-2-yl)amino)cyclohexyl)ureido)-5-methoxyphenyl)acrylamide] gave an IC50 (VCaP cell; Homo sapiens) of 50 to 500 nM.

Compound `C=CC(=O)Nc1cc(N(C(=O)NCc2ccccc2)[C@H]2CC[C@H](Nc3ccc(C#N)cn3)CC2)ccc1N1CCN[C@@H](C)C1` [YJZ8027] has an IC50 (CDK12) of 15 to 50 nM, an IC50 (CDK13) of under 15 nM and an IC50 (VCaP cell; Homo sapiens) of 15 to 50 nM.

Compound `C=CC(=O)Nc1cc(N(C(=O)NCc2ccccc2)[C@H]2CC[C@H](Nc3ccc(C#N)cn3)CC2)ccc1N(C)CCN(C)C` [YJZ5125, N-(5-(3-benzyl-1-((1r,4r)-4-((5-cyanopyridin-2-yl)amino)cyclohexyl)ureido)-2-((2-(dimethylamino)ethyl)(methyl)amino)phenyl)acrylamide] has an IC50 (CDK12) of 50 to 500 nM, an IC50 (CDK13) of 50 to 500 nM and an IC50 (VCaP cell; Homo sapiens) of under 15 nM.

`C=CC(=O)Nc1cc(N(C(=O)C(=O)NCc2ccc(F)c(F)c2)[C@H]2CC[C@H](Nc3ccc(C#N)cn3)CC2)ccc1N1CCN(C)[C@@H](C)C1` [YJZ8101, N1-(3-acrylamido-4-((S)-3,4-dimethylpiperazin-1-yl)phenyl)-N1-((1r,4S)-4-((5-cyanopyridin-2-yl)amino)cyclohexyl)-N2-(3,4-difluorobenzyl)oxalamide] showed an IC50 (VCaP cell; Homo sapiens) of under 15 nM.

For `C=CC(=O)Nc1cc(N(C(=O)C(=O)NCc2cc(F)cc(F)c2)[C@H]2CC[C@H](Nc3ccc(C#N)cn3)CC2)ccc1N1CCN(C)[C@@H](C)C1` [YJZ8102, N1-(3-acrylamido-4-((S)-3,4-dimethylpiperazin-1-yl)phenyl)-N1-((1r,4S)-4-((5-cyanopyridin-2-yl)amino)cyclohexyl)-N2-(3,5-difluorobenzyl)oxalamide], the IC50 (VCaP cell; Homo sapiens) was 15 to 50 nM.

For `C=CC(=O)Nc1cc(N(C(=O)C(=O)NCc2cccc(F)c2F)[C@H]2CC[C@H](Nc3ccc(C#N)cn3)CC2)ccc1N1CCN(C)[C@@H](C)C1` [YJZ8107, N1-(3-acrylamido-4-((S)-3,4-dimethylpiperazin-1-yl)phenyl)-N1-((1r,4S)-4-((5-cyanopyridin-2-yl)amino)cyclohexyl)-N2-(2,3-difluorobenzyl)oxalamide], the IC50 (VCaP cell; Homo sapiens) was 15 to 50 nM.

With `C=CC(=O)Nc1cc(N(C(=O)NCc2ccccc2)[C@H]2CC[C@H](Nc3ccc(C#N)cn3)CC2)ccc1N1CCN(C)[C@@H](C)C1` [YJZ6093] the IC50 (CDK12) was 15 to 50 nM, the IC50 (CDK13) was 15 to 50 nM and the IC50 (VCaP cell; Homo sapiens) was under 15 nM.

For `C=CC(=O)Nc1cc(N(C(=O)NCc2ccccc2)[C@H]2CC[C@H](Nc3ccc(C#N)cn3)CC2)ccc1-c1ccc(=O)n(C)c1` [YJZ5028], the IC50 (CDK12) was 15 to 50 nM, the IC50 (CDK13) was under 15 nM and the IC50 (VCaP cell; Homo sapiens) was 50 to 500 nM.

Work on `C=CC(=O)Nc1cc(N([C@H]2CC[C@H](Nc3ccc(C#N)cn3)CC2)S(=O)(=O)Cc2ccccc2)ccc1N1CCC(N(C)C)CC1` [YJZ6136, N-(5-((N-((1r,4r)-4-((5-cyanopyridin-2-yl)amino)cyclohexyl)-1-phenylmethyl)sulfonamido)-2-(4-(dimethylamino)piperidin-1-yl)phenyl)acrylamide] yielded an IC50 (VCaP cell; Homo sapiens) of 50 to 500 nM.

`C=CC(=O)Nc1cc(N(C(=O)NCc2ccccc2)[C@H]2CC[C@H](Nc3ccc(C#N)cn3)CC2)ccc1N1C[C@H]2C[C@@H]1CN2C` [YJZ6096, N-(5-(3-benzyl-1-((1r,4R)-4-((5-cyanopyridin-2-yl)amino)cyclohexyl)ureido)-2-((1R,4R)-5-methyl-2,5-diazabicyclo[2.2.1]heptan-2-yl)phenyl)acrylamide] was tested, and the IC50 (CDK12) was 15 to 50 nM, the IC50 (CDK13) was 15 to 50 nM and the IC50 (VCaP cell; Homo sapiens) was 50 to 500 nM.

Work on `C=CC(=O)Nc1cc(N(C(C)=O)[C@H]2CC[C@H](Nc3ccc(C#N)cn3)CC2)ccc1N1CCC(N(C)C)CC1` [YJZ6115, N-(5-(N-((1r,4r)-4-((5-cyanopyridin-2-yl)amino)cyclohexyl)acetamido)-2-(4-(dimethylamino)piperidin-1-yl)phenyl)acrylamide] yielded an IC50 (VCaP cell; Homo sapiens) of over 500 nM.

In the case of `C=CC(=O)Nc1cccc(N(C(=O)NCc2ccccc2)[C@H]2CC[C@H](Nc3ccc(C#N)cn3)CC2)c1` [YJZ4156, N-(3-(3-benzyl-1-((1r,4r)-4-((5-cyanopyridin-2-yl)amino)cyclohexyl)ureido)phenyl)acrylamide], the IC50 (CDK12) is reported as over 500 nM, the IC50 (CDK13) is reported as 50 to 500 nM and the IC50 (VCaP cell; Homo sapiens) is reported as 50 to 500 nM.

Work on `C=CC(=O)Nc1cc(N(C(=O)C(=O)NCC(F)(F)F)[C@H]2CC[C@H](Nc3ccc(C#N)cn3)CC2)ccc1N1CCN(C)[C@@H](C)C1` [YJZ8104, N1-(3-acrylamido-4-((S)-3,4-dimethylpiperazin-1-yl)phenyl)-N1-((1r,4S)-4-((5-cyanopyridin-2-yl)amino)cyclohexyl)-N2-(2,2,2-trifluoroethyl)oxalamide] yielded an IC50 (VCaP cell; Homo sapiens) of 15 to 50 nM.

In the case of `C=CC(=O)Nc1cc(N(C(=O)C(=O)NCc2ccc(F)cc2)[C@H]2CC[C@H](Nc3ccc(C#N)cn3)CC2)ccc1N1CCN(C)[C@@H](C)C1` [YJZ8093, N1-(3-acrylamido-4-((S)-3,4-dimethylpiperazin-1-yl)phenyl)-N1-((1r,4S)-4-((5-cyanopyridin-2-yl)amino)cyclohexyl)-N2-(4-fluorobenzyl)oxalamide], the IC50 (VCaP cell; Homo sapiens) is reported as 15 to 50 nM.

Compound `C=CC(=O)Nc1cc(N(C(=O)C(=O)N[C@H](C)c2ccccc2)[C@H]2CC[C@H](Nc3ccc(C#N)cn3)CC2)ccc1N1CCN(C)[C@@H](C)C1` [YJZ8105, N1-(3-acrylamido-4-((S)-3,4-dimethylpiperazin-1-yl)phenyl)-N1-((1r,4R)-4-((5-cyanopyridin-2-yl)amino)cyclohexyl)-N2-((R)-1-phenylethyl)oxalamide] has an IC50 (VCaP cell; Homo sapiens) of 15 to 50 nM.

`C=CC(=O)Nc1cc(N(C(=O)C(=O)NC2CC2)[C@H]2CC[C@H](Nc3ccc(C#N)cn3)CC2)ccc1N1CCN(C)[C@@H](C)C1` [YJZ8095, N1-(3-acrylamido-4-((S)-3,4-dimethylpiperazin-1-yl)phenyl)-N1-((1r,4S)-4-((5-cyanopyridin-2-yl)amino)cyclohexyl)-N2-cyclopropyloxalamide] gave an IC50 (VCaP cell; Homo sapiens) of 15 to 50 nM.

For `C=CC(=O)Nc1cc(N([C@H]2CC[C@H](Nc3ccc(C#N)cn3)CC2)S(C)(=O)=O)ccc1N1CCC(N(C)C)CC1` [YJZ6131, N-(5-(N-((1r,4r)-4-((5-cyanopyridin-2-yl)amino)cyclohexyl)methylsulfonamido)-2-(4-(dimethylamino)piperidin-1-yl)phenyl)acrylamide], the IC50 (VCaP cell; Homo sapiens) was over 500 nM.
